Experimental data as given in ChEMBL document CHEMBL5579836, “Extensive targeting of chemical space at the prime side of ketoamide inhibitors of rhomboid proteases by branched substituents empowers their selectivity and potency” (Eur J Med Chem, 2024).
Starred links: 1 amine or outer side, 2 acyl side, 3 side chain; linkers in the order of their positions; H or OH if unused. Non-standard residues stand in square brackets, D forms with d. Residues, ends and D or L forms follow the SMILES beside them. *: point of attachment. Pheol(OBn) = c1ccc(COC[C@H](Cc2ccccc2)N*)cc1; NH(4-phenylbutyl) = c1ccc(CCCCN*)cc1; X1 = C[C@H](N[*:1])C(=O)C(=O)[*:2]

Columns and labels:
Rhomboid protease GlpG [1] = biological target: T1, Rhomboid protease GlpG (Escherichia coli (strain K12), UniProt P09391); test: Inhibition of Escherichia coli GlpG extracted from Escherichia coli C43(DE3) using KSp96 as substrate incubated for 1 hr by fluorescence based assay; conditions: for Ki: read-out: Ki(app)
T1 sequence (P09391 whole entry): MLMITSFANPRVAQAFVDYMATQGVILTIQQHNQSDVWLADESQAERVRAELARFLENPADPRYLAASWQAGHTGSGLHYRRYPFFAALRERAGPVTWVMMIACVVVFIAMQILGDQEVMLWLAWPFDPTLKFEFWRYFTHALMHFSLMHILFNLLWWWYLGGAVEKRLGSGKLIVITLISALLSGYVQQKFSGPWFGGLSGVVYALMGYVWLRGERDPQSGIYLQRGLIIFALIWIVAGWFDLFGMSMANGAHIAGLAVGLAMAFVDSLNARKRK

Rhomboid protease GlpG [2] = biological target: T1, Rhomboid protease GlpG; test: Inhibition of GlpG in wild-type Escherichia coli MC4100 using MBP-Flag-LacYTMD2-Trx as substrate
[3] = Inhibition of Strep-tagged recombinant human RHBDL2 extracted from Expi293 cells using KSp118 as substrate incubated for 1 hr by fluorescence based assay; assay type: cell-free
[4] = biological target: T2, Presenilin-associated rhomboid-like protein, mitochondrial (Homo sapiens, UniProt Q9H300); test: Inhibition of tetracycline-inducible FLAG-tagged human PARL stably transfected in HEK293T harboring FITR/PARL KO; assay type: cell-based
T2 sequence (Q9H300 whole entry): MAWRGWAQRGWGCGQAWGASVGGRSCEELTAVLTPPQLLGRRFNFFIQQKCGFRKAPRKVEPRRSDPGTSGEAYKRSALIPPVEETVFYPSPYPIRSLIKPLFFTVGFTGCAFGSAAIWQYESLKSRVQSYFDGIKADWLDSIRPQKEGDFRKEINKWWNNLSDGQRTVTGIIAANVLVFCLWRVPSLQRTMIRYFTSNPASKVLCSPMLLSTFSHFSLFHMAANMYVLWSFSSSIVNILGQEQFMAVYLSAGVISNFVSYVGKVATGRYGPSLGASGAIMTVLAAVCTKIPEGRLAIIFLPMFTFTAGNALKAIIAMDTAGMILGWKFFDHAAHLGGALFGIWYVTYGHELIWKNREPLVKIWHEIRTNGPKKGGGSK

[5] = Selectivity index, ratio of IC50 for rhomboid (unknown origin) to IC50 for recombinant human PARL using KSp106 as substrate
[6] = Selectivity index, ratio of IC50 for rhomboid (unknown origin) to IC50 for Strep-tagged recombinant human RHBDL2 extracted from Expi293 cells using KSp118 as substrate
[7] = Selectivity index, ratio of IC50 for rhomboid (unknown origin) to IC50 for Escherichia coli GlpG extracted from Escherichia coli C43(DE3) using KSp96 as substrate

Structure (SMILES) | IC50 (Rhomboid protease GlpG [1]) | EC50 (Rhomboid protease GlpG [2]) | IC50 [3] | other results
CCCCc1ccc(OCC[C@H](Cc2ccccc2)NC(=O)C(=O)[C@H](C)NC(=O)[C@H](Cc2c[nH]cn2)NC(=O)[C@H](CCCNC(=N)N)NC(=O)[C@@H](NC(C)=O)C(C)C)cc1 | 1.9 nM | 131 nM |  | Ki (Rhomboid protease GlpG [1]): 0.7 nM
CC(=O)N[C@H](C(=O)N[C@@H](CCCNC(=N)N)C(=O)N[C@@H](Cc1c[nH]cn1)C(=O)N[C@@H](C)C(=O)C(=O)NC(CCCc1ccccc1)Cc1ccccc1)C(C)C (mixture of isomers) | 2.3 nM | 123 nM |  | Ki (Rhomboid protease GlpG [1]): 1.3 nM
CC(=O)N[C@@H](C)C(=O)N[C@H](C(=O)N[C@@H](Cc1ccccc1)C(=O)N[C@@H](CC(C)C)C(=O)N[C@@H](C)C(=O)C(=O)N[C@H](COCc1ccccc1)Cc1ccccc1)C(C)C (Ac-AVFL[X1]-{Pheol(OBn)}) | 14.8 nM |  | 55500 nM | 
C[C@H](NC(=O)[C@H](Cc1c[nH]cn1)NC(=O)[C@H](CCCNC(=N)N)NC(=O)CCc1ccccc1)C(=O)C(=O)N[C@H](COCc1ccccc1)Cc1ccccc1 | 2 nM | 424 nM |  | 
CC(C)CC(=O)N[C@@H](CCCNC(=N)N)C(=O)N[C@@H](Cc1c[nH]cn1)C(=O)N[C@@H](C)C(=O)C(=O)N[C@H](COCc1ccccc1)Cc1ccccc1 | 2.3 nM | 337 nM |  | 
CC(=O)N1CCC[C@H]1C(=O)N[C@H](C(=O)N[C@@H](C)C(=O)N[C@@H](CCCCN)C(=O)N[C@@H](C)C(=O)C(=O)NCCCCc1ccccc1)C(C)C (Ac-PVAK[X1]-{NH(4-phenylbutyl)}) | 330 nM |  | 712 nM | 
CC(C)CC(=O)N[C@H](C(=O)N[C@@H](C)C(=O)N[C@@H](CCCCN)C(=O)N[C@@H](C)C(=O)C(=O)NCCCCc1ccccc1)C(C)C |  |  | 236 nM | 
CC(=O)N[C@H](C(=O)N[C@@H](CCCNC(=N)N)C(=O)N[C@@H](Cc1c[nH]cn1)C(=O)N[C@@H](C)C(=O)C(=O)N[C@H](COCc1ccccc1)Cc1ccccc1)C(C)C | 2.5 nM | 173 nM | 5390 nM | Ki (Rhomboid protease GlpG [1]): 1.4 nM
CC(=O)N[C@@H](C)C(=O)N[C@H](C(=O)N[C@@H](Cc1ccccc1)C(=O)N[C@@H](CC(C)C)C(=O)N[C@@H](C)C(=O)C(=O)NCCCCc1ccccc1)C(C)C (Ac-AVFL[X1]-{NH(4-phenylbutyl)}) | 300 nM |  | 32800 nM | EC50 [4]: 445 nM; Ratio IC50 [5]: 1; Ratio IC50 [6]: 1150; Ratio IC50 [7]: 10.6
CC(=O)N1CCC[C@H]1C(=O)N[C@H](C(=O)N[C@@H](C)C(=O)N[C@@H](CCCCN)C(=O)N[C@@H](C)C(=O)C(=O)N[C@H](COCc1ccccc1)Cc1ccccc1)C(C)C (Ac-PVAK[X1]-{Pheol(OBn)}) | 5.6 nM |  | 768 nM | 
CC(=O)N[C@H](C(=O)N[C@@H](CCCNC(=N)N)C(=O)N[C@@H](Cc1c[nH]cn1)C(=O)N[C@@H](C)C(=O)C(=O)NCCCCc1ccccc1)C(C)C | 44.4 nM | 1470 nM | 6210 nM | 
CC(=O)N[C@H](C(=O)N[C@@H](CCCNC(=N)N)C(=O)N[C@@H](Cc1c[nH]cn1)C(=O)N[C@@H](C)C(=O)C(=O)NCCc1ccccc1)C(C)C | 56.1 nM | 1610 nM |  | 
